Data from US12441710B2, “Substituted piperidino compounds and related methods of treatment” (Alkermes, Inc., priority 2020, dated 2025).

Columns and labels:
Sprague-Dawley rats = test: Assessment of wake promotion in Sprague-Dawley rats (EEG/EMG); assay type: in vivo, rat; settings: 3 mpk, male Sprague-Dawley rats, 6-hour post-dose period
Experimental: Wake promotion was assessed using electroencephalography (EEG) and electromyography (EMG) in adult male Sprague-Dawley rats. All rats (Charles River Laboratories, Raleigh, NC, USA) were intraperitoneally implanted with telemetry devices (F50-EEE, Data Sciences International Inc., MN, USA) under isoflurane anesthesia. For EEG, stainless steel screws were implanted over frontal cortex and parietal cortex, and reference screws were placed over cerebellum. Additionally, an electrode was placed in neck muscle for EMG. Rats were given carprofen post-surgery and underwent a 7 to 10-day recovery period. Rats habituated to the experimental room for 7 days and were maintained on a 12-hour light-dark cycle.
EEG and EMG data were recorded using the DSI telemetry system and Ponemah software (Data Sciences International Inc., MN, USA). Sleep-wake stages were scored both manually and with Somnivore, a supervised machine learning software platform, in 10 second epochs. Records were visually inspected as needed post-processing.
All test compounds were dissolved in 5% DMSO and suspended in 95% saline with 0.5% methylcellulose and 0.5% tween. […] Unless otherwise indicated, all compounds were dosed orally. Recordings for each rat were initiated immediately after dosing and lasted for 6 hours post-dose.
Two key endpoints include wakefulness time and cortical activation time. […]

[1] = target: T1, human orexin-2 receptor (OX2R) (Homo sapiens, UniProt O43614); test: Human OX2R IP1 assay; assay type: cell-based; settings: T-Rex CHO cells stably overexpressing human OX2R; IP1 accumulation, 1 hr at 37 degrees C
T1 construct: expressed in transfected cells
T1 sequence (O43614 1-444): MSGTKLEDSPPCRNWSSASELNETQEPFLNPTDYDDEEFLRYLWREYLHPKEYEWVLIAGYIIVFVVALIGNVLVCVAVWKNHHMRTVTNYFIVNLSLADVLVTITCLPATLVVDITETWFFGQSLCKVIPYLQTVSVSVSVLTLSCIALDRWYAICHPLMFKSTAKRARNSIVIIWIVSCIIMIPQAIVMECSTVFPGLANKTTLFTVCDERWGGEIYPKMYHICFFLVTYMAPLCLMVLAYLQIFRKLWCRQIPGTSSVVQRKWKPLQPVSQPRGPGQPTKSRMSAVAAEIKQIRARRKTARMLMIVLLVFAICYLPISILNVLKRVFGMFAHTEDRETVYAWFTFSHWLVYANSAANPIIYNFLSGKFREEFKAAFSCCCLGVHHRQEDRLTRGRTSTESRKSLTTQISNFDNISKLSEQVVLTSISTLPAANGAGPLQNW
Experimental: T-Rex CHO cells stably overexpressing the human orexin-2 receptor (OX2R) were induced overnight with 1 μg/mL of doxycycline in a T225 flask. 24 hours post induction, cells were lifted with accutase and plated into a 384-well proxy plate at 30,000 cells/well. Cells were then treated with different test compounds in 1× stimulation buffer containing 10 mM Hepes, 1 mM CaCl2), 0.5 mM MgCl2, 4.2 mM KCl, 146 mM NaCl, 5.5 mM glucose, and 50 mM LiCl, pH 7.4, for 1 hr at 37 degrees C. Following incubation, the reaction was terminated by the addition of detection mix, which is composed of IP1-d2 and anti-IP1-cryptate diluted in lysis buffer as well as 1× stimulation buffer. The plates were allowed to incubate for 1 hour at room temperature and were then read in the EnVision® multimode plate reader, measuring inositol phosphate levels.
Cisbio IP1 is a cell-based functional assay quantifying the accumulation of inositol monophosphate (IP), a metabolite released as a result of orexin 2 receptor activation through the phospholipase C-Gq signaling pathway. This is a competitive immunoassay in which the IP1 produced by the cells upon receptor activation competes with the IP1 analog coupled to the d2 fluorophore (acceptor) for binding to an anti-IP1 monoclonal antibody labeled with Eu cryptate (donor). The measured HTRF-FRET based signal is inversely proportional to the IP1 concentration produced.
The EC50 values reported in Table 2 were obtained according to the human OX2R IP1 assay described above. Data are the mean EC50 values±S.E.M. The compound methyl (2R,3S)-3-((methylsulfonyl)amino)-2-(((cis-4-phenylcyclohexyl)oxy)methyl)-piperidine-1-carboxylate (sometimes referred to herein as Reference Compound A) is a reference compound which is disclosed in Example 5 of PCT publication no. WO2017/135306.

human hepatocytes = test: Hepatocytes stability assay (human hepatocytes); assay type: in vitro ADME; settings: hepatic clearance divided by liver blood flow, fu assumed unity
Experimental: In vitro metabolic stability was assessed using cryopreserved hepatocytes from male Sprague Dawley rats and a pool of 50 mixed gender humans (BioIVT, Baltimore, MD). The incubation mixtures were prepared by mixing 250 μL of pre-warmed KHB (Krebs-Henseleit buffer) containing 2×10^6 cell/mL of hepatocytes with 250 μL of pre-warmed KHB buffer containing 2 μM of test compounds in a 48-well plate, giving a final concentration of 1 μM test compound (0.1% DMSO) and 1×10^6 cell/mL of hepatocytes. The reaction mixture was incubated at 37 degrees C. A 50 μL aliquot of incubation mixture was taken at time points (0, 15, 30, 60, 120 and 240 minutes) and transferred into a 96-well plate containing 300 μL ice-cold acetonitrile (containing 30 ng/mL of labetalol and 10 ng/mL of Naltrexone-d3 as internal standards) and immediately placed in ice to terminate the reaction. Samples were centrifuged, and supernatants were transferred into 96-well plates for liquid chromatography with tandem mass spectrometry (LC-MS/MS) analysis to monitor the depletion of the test compound. Data was calculated as percent remaining by assuming zero-minute time point peak area ratio (analyte/IS) as 100% and dividing remaining time point peak area ratios by zero-minute time point peak area ratio. Data were fitted to a first-order decay model to determine half-life. From a plot of log (ln) peak area against time, the slope of the line was determined. Subsequently, half-life (T1/2) and intrinsic clearance (CLint) were calculated using the equations below: • Elimination rate constant (k)=(−slope) • Half-life (T1/2) min=0.693/k • Intrinsic Clearance (CLint) (mL/min/million cells)=(V×0.693)/T1/2 • V=incubation volume mL/number of cells The in vitro T1/2 was converted to in vitro intrinsic clearance (CLint,hep) in units of mL/min/kg using the formula shown below: The in vitro intrinsic clearance (CLint,hep) was scaled to in vivo hepatic clearance (CL,hep) using the following equation which was adapted from a well-stirred model. [formula] where Q is the liver blood flow and fu is the fraction unbound (assumed to be unity in this case). All parameters used in the calculation are shown below (Table 4). The extraction ratio (ER) was calculated by dividing the hepatic clearance of a compound to the liver blood flow. The data reported in Table 5 were obtained according to the human hepatocytes stability assay described above.

Row | EC50 [1] | Extraction Ratio (ER) (human hepatocytes) | Compound | Mean cortical activation time (% vehicle treatment) (Sprague-Dawley rats; PO) | Mean cortical activation time (% vehicle treatment) (Sprague-Dawley rats; SC)
1 | < 100 nM |  | O=S(=O)(N[C@H]1CCN(c2ccccn2)C[C@H]1CO[C@H]1CC[C@@H](c2ccccc2)CC1)C(F)(F)F [Compound 53] | 105.00 % vehicle treatment | 
2 | < 100 nM | 0.92 | COC(=O)N1CCC[C@H](NS(C)(=O)=O)[C@@H]1CO[C@H]1CC[C@@H](c2ccccc2)CC1 [Reference Compound A, methyl (2R,3S)-3-((methylsulfonyl)amino)-2-(((cis-4-phenylcyclohexyl)oxy)methyl)-piperidine-1-carboxylate, reference compound] |  | 118.75 % vehicle treatment
